Measurements published in patent publication US20080287430A1, “Furan Compounds Useful As Ep1 Receptor Antagonists” (priority 2005, published 2008).
Where a name gives a salt, the structure may show the parent alone.

Target: T1, human EP1 receptor (Homo sapiens, UniProt P34995)
T1 construct: expressed in transfected cells; host or cells: CHO-K1
T1 sequence (P34995 1-402): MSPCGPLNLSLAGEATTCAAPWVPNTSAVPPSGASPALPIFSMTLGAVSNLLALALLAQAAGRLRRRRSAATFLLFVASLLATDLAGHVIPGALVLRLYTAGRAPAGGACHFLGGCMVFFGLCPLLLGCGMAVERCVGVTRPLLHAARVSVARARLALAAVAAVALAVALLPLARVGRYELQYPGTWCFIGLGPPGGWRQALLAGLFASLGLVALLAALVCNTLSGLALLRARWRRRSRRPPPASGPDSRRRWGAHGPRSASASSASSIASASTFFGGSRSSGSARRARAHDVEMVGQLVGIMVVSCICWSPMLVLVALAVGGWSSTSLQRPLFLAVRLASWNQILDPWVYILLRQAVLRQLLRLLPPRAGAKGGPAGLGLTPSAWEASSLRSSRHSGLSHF
Test: human EP1 calcium mobilisation assay
Format: cell-based
Conditions: human EP1, PGE2-induced calcium mobilisation in CHO-K1 cells; free bases or sodium salts; averages of a number of experiments; read-out: functional pKi value (converted)
Description: Briefly, the antagonist properties of compounds are assessed by their ability to inhibit the mobilisation of intracellular calcium ([Ca^2+]i) in response to activation of EP1 or EP3 receptors by the natural agonist hormone prostaglandin E2 (PGE2). Increasing concentrations of antagonist reduce the amount of calcium that a given concentration of PGE2 can mobilise. The net effect is to displace the PGE2 concentration-effect curve to higher concentrations of PGE2. The amount of calcium produced is assessed using a calcium-sensitive fluorescent dye such as Fluo-4, AM and a suitable instrument such as a Fluorimetric Imaging Plate Reader (FLIPR). Increasing amounts of [Ca^2+]i produced by receptor activation increase the amount of fluorescence produced by the dye and give rise to an increasing signal. The signal may be detected using the FLIPR instrument and the data generated may be analysed with suitable curve-fitting software.
The human EP1 or EP3 calcium mobilisation assay (hereafter referred to as ‘the calcium assay’) utilises Chinese hamster ovary-K1(CHO-K1) cells into which a stable (pCIN; BioTechniques 20 (1996): 102-110) vector containing either EP1 or EP3 cDNA has previously been transfected. Cells are cultured in suitable flasks containing culture medium such as DMEM:F-12 supplemented with 10% v/v foetal calf serum, 2 mM L-glutamine, 0.25 mg/ml geneticin, 100 μM flurbiprofen and 10 μg/ml puromycin.
For assay, cells are harvested using a proprietary reagent that dislodges cells such as Versene. Cells are re-suspended in a suitable quantity of fresh culture media for introduction into a 384-well plate. Following incubation for 24 hours at 37° C. the culture media is replaced with a medium containing Fluo-4 and the detergent pluronic acid, and a further incubation takes place. Concentrations of compounds are then added to the plate in order to construct concentration-effect curves. This may be performed on the FLIPR in order to assess the agonist properties of the compounds. Concentrations of PGE2 are then added to the plate in order to assess the antagonist properties of the compounds.
The data so generated may be analysed by means of a computerised curve-fitting routine. The concentration of compound that elicits a half-maximal inhibition of the calcium mobilisation induced by PGE2 (pIC50) may then be estimated.

Ki [nM]	SMILES
< 1000	Clc1ccc(OCc2ccccc2)c(Cc2ccc(-c3nc4ncccc4[nH]3)o2)c1 [Example 121, 2-[5-({5-Chloro-2-[(phenylmethyl)oxy]-phenyl}methyl)-2-furanyl]-1H-imidazo[4,5-b]pyridine]
< 1000	CC(C)COc1ccc(Cl)cc1Cc1ccc(-c2nc3cc(F)c(F)cc3[nH]2)o1 [Example 124, 2-[5-({5-Chloro-2-[(2-methylpropyl)oxy]phenyl}-methyl)-2-furanyl]-5,6-difluoro-1H-benzimidazole]
< 1000	CC(C)COc1ccc(Cl)cc1Cc1ccc(-c2nc3ccc(CN(C)CC4CCOCC4)cc3[nH]2)o1 [Example 152, ({2-[5-({5-Chloro-2-[(2-methylpropyl)oxy]-phenyl}methyl)-2-furanyl]-1H-benzimidazol-5-yl}methyl)methyl(tetrahydro-2H-pyran-4-ylmethyl)aminedihydrochloride]
< 1000	CC(C)COc1ccc(Cl)cc1Cc1ccc(-c2nc3cc(C(F)(F)F)ccc3[nH]2)o1 [Example 126, 2-[5-({5-Chloro-2-[(2-methylpropyl)oxy]phenyl}-methyl)-2-furanyl]-5-(trifluoromethyl)-1H-benzimidazole]
< 1000	Clc1ccc(OCc2ccccc2)c(Cc2ccc(-c3nc4ccc(CN5CCCC5)cc4[nH]3)o2)c1 [Example 140, 2-[5-({5-Chloro-2-[(phenylmethyl)oxy]-phenyl}methyl)-2-furanyl]-5-(1-pyrrolidinylmethyl)-1H-benzimidazoledihydrochloride]
< 1000	Fc1cccc2nc(-c3ccc(Cc4cc(Cl)ccc4OCc4ccccc4)o3)[nH]c12 [Example 131, 2-[5-({5-Chloro-2-[(phenylmethyl)oxy]-phenyl}methyl)-2-furanyl]-4-fluoro-1H-benzimidazole]
< 1000	CC(C)COc1ccc(Cl)cc1Cc1ccc(-c2nc3ccc(CN(C)CC(C)(C)C)cc3[nH]2)o1 [Example 153, N-({2-[5-({5-Chloro-2-[(2-methylpropyl)oxy]-phenyl}methyl)-2-furanyl]-1H-benzimidazol-5-yl}methyl)-N,2,2-trimethyl-1-propanaminedihydrochloride]
< 1000	Clc1ccc(OCc2ccccc2)c(Cc2ccc(-c3nnc[nH]3)o2)c1 [Example 169, 3-[5-({5-Chloro-2-[(phenylmethyl)oxy]phenyl}methyl)-2-furanyl]-1H-1,2,4-triazole]
< 1000	Clc1ccc(OCc2ccccc2)c(Cc2ccc(-c3nc4ccc(CN5CCOCC5)cc4[nH]3)o2)c1 [Example 139, 2-[5-({5-Chloro-2-[(phenylmethyl)oxy]-phenyl}methyl)-2-furanyl]-5-(4-morpholinylmethyl)-1H-benzimidazoledihydrochloride]
< 1000	CC(C)COc1ccc(Cl)cc1Cc1ccc(-c2nc3cc(CN(C)C)cnc3[nH]2)o1 [Example 164, ({2-[5-({5-Chloro-2-[(2-methylpropyl)oxy]-phenyl}methyl)-2-furanyl]-1H-imidazo[4,5-b]pyridin-6-yl}methyl)dimethyl-amine dihydrochloride]
< 1000	CCN(CC)Cc1ccc2nc(-c3ccc(Cc4cc(Cl)ccc4OCC(C)C)o3)[nH]c2c1 [Example 150, N-({2-[5-({5-Chloro-2-[(2-methylpropyl)oxy]-phenyl}methyl)-2-furanyl]-1H-benzimidazol-5-yl}methyl)-N-ethylethanaminedihydrochloride]

The next lines start with the molecule.

SMILES	Ki [nM]
COCCOc1ccc(Cl)cc1Cc1ccc(C(=O)O)o1 [Example 8, Sodium 5-[(5-chloro-2-{[2-(methyloxy)ethyl]oxy}phenyl)methyl]-2-furancarboxylate]	< 1000
CC(C)COc1ccc(Cl)cc1Cc1ccc(C(=O)Nc2c(F)cccc2F)o1 [Example 80, 5-({5-Chloro-2-[(2-methylpropyl)oxy]-phenyl}methyl)-N-(2,6-difluorophenyl)-2-furancarboxamide]	< 1000
COc1ccc2[nH]c(-c3ccc(Cc4cc(Cl)ccc4OCc4ccccc4)o3)nc2c1 [Example 100, 2-[5-({5-Chloro-2-[(phenylmethyl)oxy]phenyl}methyl)-2-furanyl]-5-(methyloxy)-1H-benzimidazole]	< 1000
CCN1CCN(c2ccc3nc(-c4ccc(Cc5cc(Cl)ccc5OCC(C)C)o4)[nH]c3c2)CC1 [Example 114, 2-[5-({5-Chloro-2-[(2-methylpropyl)oxy]-phenyl}methyl)-2-furanyl]-5-(4-ethyl-1-piperazinyl)-1H-benzimidazoletrihydrochloride]	< 1000
CCC(CC)Oc1ccc(Cl)cc1Cc1ccc(C(=O)O)o1 [Example 4, Sodium 5-({5-chloro-2-[(1-ethylpropyl)oxy]phenyl}methyl)-2-furancarboxylate]	< 1000
CC(C)COc1ccc(Cl)cc1Cc1ccc(C(=O)NCc2ccc(-c3cccnc3)cc2)o1 [Example 45, 5-({5-Chloro-2-[(2-methylpropyl)oxy]phenyl}methyl)-N-{[4-(3-pyridinyl)phenyl]methyl}-2-furancarboxamide]	< 1000
Cc1cc(C(=O)NCc2ccccc2)oc1Cc1cc(Cl)ccc1OCC(C)C [Example 32, 5-({5-Chloro-2-[(2-methylpropyl)oxy]phenyl}methyl)-4-methyl-N-(phenylmethyl)-2-furancarboxamide]	< 1000
O=C(Nc1c(F)cccc1F)c1ccc(Cc2cc(Cl)ccc2OCc2c(F)cc(F)cc2F)o1 [Example 83, 5-[(5-Chloro-2-{[(2,4,6-trifluorophenyl)methyl]oxy}-phenyl)methyl]-N-(2,6-difluorophenyl)-2-furancarboxamide]	< 1000
Cc1cc(C(=O)NCc2ccccc2)oc1Cc1cc(Cl)ccc1OCc1ccccc1 [Example 31, 5-({5-Chloro-2-[(phenylmethyl)oxy]phenyl}methyl)-4-methyl-N-(phenylmethyl)-2-furancarboxamide]	< 1000
O=C(O)c1ccc(Cc2cc(Cl)ccc2OCCc2ccccc2)o1 [Example 12, Sodium 5-({5-chloro-2-[(2-phenylethyl)oxy]phenyl}methyl)-2-furancarboxylate]	< 1000
Cc1ccccc1NC(=O)c1ccc(Cc2cc(Cl)ccc2OCc2ccccc2)o1 [Example 73, 5-({5-Chloro-2-[(phenylmethyl)oxy]-phenyl}methyl)-N-(2-methylphenyl)-2-furancarboxamide]	< 1000
CC(C)CCOc1ccc(Cl)cc1Cc1ccc(C(=O)O)o1 [Example 11, Sodium 5-({5-chloro-2-[(3-methylbutyl)oxy]phenyl}methyl)-2-furancarboxylate]	< 1000
O=C(Nc1c(F)cccc1F)c1ccc(Cc2cc(Cl)ccc2OCc2ccc(F)c(F)c2)o1 [Example 86, 5-[(5-Chloro-2-{[(3,4-difluorophenyl)methyl]oxy}-phenyl)methyl]-N-(2,6-difluorophenyl)-2-furancarboxamide]	< 1000
CC(C)COc1ccc(Cl)cc1Cc1ccc(C(=O)NCc2ccc(C(N)=O)cc2)o1 [Example 46, N-{[4-(Aminocarbonyl)-phenyl]methyl}-5-({5-chloro-2-[(2-methylpropyl)oxy]phenyl}methyl)-2-furancarboxamide]	< 1000
CC(C)COc1ccc(Cl)cc1Cc1ccc(-c2nc3ccc(Br)cc3[nH]2)o1 [Example 110, 5-Bromo-2-[5-({5-chloro-2-[(2-methylpropyl)oxy]-phenyl}methyl)-2-furanyl]-1H-benzimidazolehydrochloride]	> 1000
O=C(O)c1ccc(Cc2cc(Cl)ccc2OCc2ccncc2Cl)o1 [Example 17, Sodium 5-[(5-chloro-2-{[(3-chloro-4-pyridinyl)methyl]oxy}phenyl)methyl]-2-furancarboxylate]	≤ 10
CC(C)COc1ccc(Cl)cc1Cc1ccc(-c2nc3ncccc3[nH]2)o1 [Example 116, 2-[5-({5-Chloro-2-[(2-methylpropyl)oxy]phenyl}-methyl)-2-furanyl]-1H-imidazo[4,5-b]pyridine]	< 1000
CC(C)COc1ccc(Cl)cc1Cc1ccc(C(=O)NCc2ccc(C#N)cc2)o1 [Example 42, 5-({5-Chloro-2-[(2-methylpropyl)oxy]phenyl}methyl)-N-[(4-cyanophenyl)methyl]-2-furancarboxamide]	< 1000
